Laboratory results taken from PubChem BioAssay (NCI).
Several values for one entry are separate records, joined by “and”; a condition that tells them apart may be missing. Identical values can stand only once.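 Briefly, cells in 96-well plates were exposed to five compound concentrations for 48 h, and endpoints were estimated by linear interpolation. Abbreviation: GI50, concentration required for 50% inhibition of growth. TGI denotes the concentration required for complete inhibition of growth.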

Key:
Experiment in all cases: NCI-60 cell line screen, 48 h
LOX IMVI melanoma = system: LOX IMVI melanoma
A498 renal = system: A498 renal
786-0 renal = system: 786-0 renal
UO-31 renal = system: UO-31 renal
UACC-62 melanoma = system: UACC-62 melanoma
UACC-257 melanoma = system: UACC-257 melanoma
MCF7 breast = system: MCF7 breast
NCI-H522 lung = system: NCI-H522 lung
U251 CNS = system: U251 CNS

| SMILES | GI50 (LOX IMVI melanoma) | TGI (LOX IMVI melanoma) | GI50 (A498 renal) | TGI (A498 renal) | GI50 (786-0 renal) | TGI (786-0 renal) | GI50 (UO-31 renal) | TGI (UO-31 renal) | GI50 (UACC-62 melanoma) | TGI (UACC-62 melanoma) | GI50 (UACC-257 melanoma) | TGI (UACC-257 melanoma) | GI50 (MCF7 breast) | TGI (MCF7 breast) | GI50 (NCI-H522 lung) | TGI (NCI-H522 lung) | GI50 (U251 CNS) | TGI (U251 CNS) |
| --- | --- | --- | --- | --- | --- | --- | --- | --- | --- | --- | --- | --- | --- | --- | --- | --- | --- | --- |
| CC1(C)N=C(N)N=C(N)N1c1cccc(CCCCc2cccc(S(=O)(=O)F)c2)c1 | 0.424 µM | > 100 µM | 7.36 µM | > 100 µM | 2.12 µM | > 100 µM | > 100 µM | > 100 µM | 0.281 µM | 18 µM | 2.79 µM | 36.6 µM | 0.485 µM | 24.9 µM | 2.55 µM | 43.9 µM | 0.456 µM | 36 µM |
| COc1ccc(C2CC(c3cc(OC)c(OC)c(OC)c3)=NO2)cc1OCCCCOc1cc2c(cc1OC)C(=O)N1CCC[C@H]1C=N2 (stereo not given in full) | 1.47 µM | 2.84 µM | 1.72 µM | 3.22 µM | 1.57 µM | 2.99 µM | 2.09 µM | 6.26 µM | 1.52 µM | 2.85 µM | 2.33 µM | 4.96 µM | 1.75 µM | 12.3 µM | 0.61 µM | 2.28 µM | 1.73 µM | 3.61 µM |
| Cc1c2cc[n+](C)cc2c(C)c2c1sc1ccccc12 |  | 22.1 µM |  | 13.6 µM |  | 2.9 µM |  | > 90.7 µM |  | 4.25 µM |  | 7.01 µM |  | 41.8 µM |  | 2.4 µM |  | 1.15 µM |
| CC(=O)N[C@@H](Cc1ccc(OP(=O)(O)O)cc1)C(=O)N[C@H]1CCC(=O)N2CCC[C@@H](C(=O)NCc3ccc(Cl)cc3)N2C1=O | > 25 µM | > 25 µM | > 25 µM | > 25 µM | > 25 µM | > 25 µM | > 25 µM | > 25 µM | > 25 µM | > 25 µM | > 25 µM | > 25 µM | > 25 µM | > 25 µM | > 25 µM | > 25 µM | > 25 µM | > 25 µM |
| N#Cc1c(-c2ccccc2)nc(SCC2CO2)nc1N1CCOCC1 (stereo not given) | 9.49 µM | > 100 µM | 1.26 µM | 5.42 µM | 4.12 µM | > 46.1 µM | 5.61 µM | > 100 µM | 3.52 µM | > 86.9 µM | 34.3 µM | > 100 µM | 3.06 µM | > 100 µM | 27.5 µM | > 100 µM | 19.2 µM | > 100 µM |
| CCN1CCN(Cc2ccc(-c3cc4c(N[C@H](C)c5ccccc5)ncnc4[nH]3)cc2)CC1 | 1.51 µM and 1.24 µM | 3.06 µM and 2.78 µM | 0.947 µM and 0.35 µM | 2.82 µM and 2.08 µM | 2.02 µM and 1.91 µM | 8.93 µM and 7.74 µM | 0.37 µM and 0.542 µM | 8.95 µM and > 10 µM | 2.09 µM and 3.75 µM | 5.36 µM and > 10 µM | 1.76 µM and 1.83 µM | 3.38 µM and 3.41 µM | 2.78 µM and 2.68 µM | 15.9 µM and > 10 µM | 0.154 µM and 0.462 µM | 2.23 µM and > 10 µM | 1.84 µM and 2.85 µM | 5.06 µM and > 10 µM |
| Clc1ccc(CSC(Cn2ccnc2)c2ccc(Cl)cc2Cl)cc1 (stereo not given) | 1.59 µM | 2.93 µM | 1.13 µM | 2.33 µM | 1.61 µM | 3.13 µM | 1.38 µM | 4.48 µM | 1.17 µM | 2.43 µM | 1.43 µM | 2.86 µM | 1.6 µM | 2.99 µM | 1.13 µM | 2.48 µM | 1.39 µM | 2.68 µM |
| NCCNc1c2c(c(NCCN)c3c(CO)c[nH]c13)C(=O)c1ccccc1C2=O | 8.32 µM | > 100 µM | 41.2 µM | > 100 µM | 5.21 µM | > 100 µM | 80.8 µM | > 100 µM | 15.2 µM | > 100 µM | 16.8 µM | 46 µM | 5.59 µM | 82 µM | 8.13 µM | > 100 µM | 2.53 µM | > 100 µM |
| C=CC[n+]1c(/C=C/C=C2\N(C)c3ccccc3C2(C)C)sc2ccc(OC)cc21 | 0.313 µM | 15.1 µM | 0.278 µM | 4.37 µM | 0.363 µM | 18.8 µM | 1.53 µM | 8.82 µM | 0.195 µM | 2.65 µM | 0.197 µM | 0.733 µM | 0.157 µM | 11.4 µM | 0.133 µM | 2.6 µM | 0.293 µM | 14.4 µM |
| CCOC(=O)c1ccc2[nH]c(-c3ccc(S(=O)(=O)F)cc3)cc(=O)c2c1 |  | > 100 µM |  | 68 µM |  | > 100 µM |  | > 100 µM |  | 76.2 µM |  | > 100 µM |  | > 100 µM |  | 39.4 µM |  | > 100 µM |
| Cc1ccc([N+](=O)[O-])cc1NC(=O)Nc1cccc(F)c1 | 5.78 µM | > 100 µM | 1.61 µM | 9.76 µM | 14.1 µM | > 100 µM | 3.36 µM | 17.6 µM | 4.55 µM | > 100 µM | 4.23 µM | > 100 µM | 3.63 µM | > 100 µM | 2.64 µM | 15.7 µM | 3.82 µM | 18.4 µM |
| COC(=O)[C@@]12C(=O)C=CC(=O)[C@@H]1C1C(=CC2COC(C)=O)O[C@@H]2OC3(CCCCC3)O[C@H]12 (stereo not given in full) |  | 24.6 µM |  | 37.4 µM |  | 18.7 µM |  | 28.3 µM |  | 25.9 µM |  | 30.3 µM |  | 32.3 µM |  | 6.29 µM |  | 29.2 µM |
| C[C@@H]1COCCN1c1cc(C2([S@](C)(=N)=O)CC2)nc(-c2ccnc3[nH]ccc23)n1 | 0.903 µM and 2.75 µM | 12.7 µM and > 10 µM | 0.43 µM and 1.27 µM | 3.71 µM and 8.78 µM | 1.39 µM and 2.03 µM | 16.1 µM and > 10 µM | 2.95 µM and 2.04 µM | 32.1 µM and > 10 µM | 2.34 µM and 1.76 µM | 16.6 µM and > 10 µM | 14 µM and > 10 µM | 74 µM and > 10 µM | 0.417 µM and 0.611 µM | 39 µM and > 10 µM | 8.61 µM and 4.82 µM | > 84 µM | 9.81 µM and 5.08 µM | > 100 µM |
| Nc1c(C(=O)c2cccc(CCCN3CCOCC3)c2)cnn1-c1ccc(F)cc1 | > 25 µM | > 25 µM | > 17.6 µM | > 25 µM | > 25 µM | > 25 µM | > 25 µM | > 25 µM | > 25 µM | > 25 µM | > 25 µM | > 25 µM | > 25 µM | > 25 µM | > 25 µM | > 25 µM | > 25 µM | > 25 µM |
